Values after ≈ are worked out from the molar mass of the structure shown. Like-named read-outs stand apart in the source and are kept apart here. Residues, ends and D or L forms follow the SMILES beside them.
Legend:
K. pneumoniae = experiment: microbe, parasite or virus in culture; settings: for MIC: Klebsiella pneumoniae, mode of 6 replicates
How it was run: (§1)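 MICs were scored by eye after 18-20 h static incubation at 37 °C, with bacteria at 5 × 10^5 CFU mL^−1 in MHB. Peptides were serially diluted 2-fold over 12 points, top 128 or 64 μg mL^−1. CAMHB (CLSI) and 1% agarose-MHB variants were also run, at least six replicates.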

A. baumannii = experiment: microbe, parasite or virus in culture; settings: for MIC: Acinetobacter baumannii, mode of 6 replicates
How it was run: as §1

P. aeruginosa = experiment: microbe, parasite or virus in culture; settings: for MIC: Pseudomonas aeruginosa, mode of 6 replicates
How it was run: as §1

S. enterica Typhi = experiment: microbe, parasite or virus in culture; settings: for MIC: Salmonella enterica, ATCC14028 / TYPHI, read-out: BMD MIC
How it was run: as §1

E. coli [1] = experiment: microbe, parasite or virus in culture; settings: Escherichia coli
How it was run: as §1

E. coli [2] = system: E. coli; parameters: method as in Hasman H, et al. Euro. Surveill. (2015) 20:49; settings: E. coli ESBL20150072, mcr-1 pos; ESBL; CAMHB; comparator antibiotics; ref Hasman H, et al. Euro. Surveill. (2015) 20:49; cited from earlier work
[3] = system: human primary hepatocytes; experiment: Cell viability, human primary hepatocytes (Eurofins Panlabs); format: cell-based; settings: Homo sapiens, Hepatocyte; plateable cryopreserved hepatocytes, alamarBlue, 24 h 37 °C, fluorimetry; 8-point 0.1–300 μM
Protocol: Cell viability of human primary hepatocytes against AA139 was assessed by fluorometric readout of Alamar Blue following 24 h incubation at 37 °C of human plateable cryopreserved hepatocytes and AA139 as an 8-point dose response, 0.1–300 μM, as described by Nociari et al.[41]. Cell viability was calculated as a percentage of the control cells and plotted versus concentration using Prism 8 Software. The IC50 value was determined by non-linear regression analysis of the concentration–response curve using the Hill equation. Assay was performed by Eurofins Pharma Discovery Services (Panlabs), St Charles, MO, USA, study number 100049990. Source data are provided as a source data file.

L. monocytogenes = experiment: microbe, parasite or virus in culture
How it was run: as §1

B. subtilis = experiment: microbe, parasite or virus in culture; settings: for MIC: Bacillus subtilis
How it was run: as §1

S. aureus = experiment: microbe, parasite or virus in culture; settings: Staphylococcus aureus, mode of 6 replicates
How it was run: as §1

[4] = system: K. pneumoniae clinical isolates; experiment: microbe, parasite or virus in culture
Protocol: (§2) The in vitro activity of AA139 and comparator antimicrobials was determined in two panels of clinical isolates of E. coli, K. pneumoniae, P. aeruginosa, and A. baumannii (Supplementary Table 3), and MIC90 presented. The US panel consisted of 331 clinical isolates from 2010 to 2012. It was tested by BMD in accordance with the CLSI guidelines (M07-A9, 2012)[39]. […] AA139 was diluted in 0.01% acetic acid/0.1% bovine serum albumin. Sterile polypropylene culture cluster round-bottom 96-well plates (Costar # 3879) were used for testing. The worldwide panel consisted of 445 clinical isolates from 2011 to 2013, geographically divided into Asia, Europe, North America, and Rest of World (Middle East, Latin America, Africa, and South Pacific) with each region representing ~25% of the isolates. It was tested by broth microdilution in accordance with the CLSI guidelines (M07-A9, 2012)[39]. […] The test media was CAMHB (Becton Dickinson). AA139 and polymyxin B were tested in media supplemented with 0.002% Tween 80 (Calbiochem). MIC90 values were calculated for all or subsets of the isolates. MIC correlation between AA139 and colistin was analyzed with data from the US panel.

[5] = system: P. aeruginosa clinical isolates; experiment: microbe, parasite or virus in culture
Protocol: as §2

[6] = system: A. baumannii clinical isolates; experiment: microbe, parasite or virus in culture
Protocol: as §2

[7] = system: E. coli clinical isolates; experiment: microbe, parasite or virus in culture
Protocol: as §2

E. coli ATCC 25922 = experiment: microbe, parasite or virus in culture; format: cell-based, Escherichia coli; settings: ATCC 25922
How it was run: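 Broth microdilution MIC in Mueller Hinton broth, 12-point 2-fold series from 128 or 64 down to 0.06 or 0.03 μg mL^−1, 5 × 10^5 CFU mL^−1 inoculum. Read visually after 18-20 h at 37 °C without shaking; n ≥ 6. Additional tests in CAMHB, and in MHB with 1% agarose.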

C. albicans = experiment: microbe, parasite or virus in culture
C. neoformans = experiment: microbe, parasite or virus in culture
[8] = system: human erythrocytes (HRBC); format: cell-based
[9] = system: HEK-293 human embryonic kidney cells; experiment: in vitro
in vitro = settings: human
[10] = system: HepG2 liver hepatocellular carcinoma cells; experiment: in vitro
[11] = system: HK-2 human kidney proximal tubule cells; experiment: in vitro
[12] = ATCC13883, read-out: BMD MIC, K. pneumoniae ATCC 13883 type strain (polymyxin/colistin heteroresistant), MHB
[13] = ATCC700603, read-out: BMD MIC, K. pneumoniae ATCC 700603 (K6), MDR, OXA-2/SHV-18, CAMHB
[14] = BAA2146, read-out: BMD MIC, K. pneumoniae BAA-2146, MDR, ESBL, NDM-1 pos, MHB
[15] = read-out: BMD MIC, K. pneumoniae Greece CI 8_GR_13, XDR, KPC-2, PmxR, MHB
[16] = ATCC19636, read-out: BMD MIC, A. baumannii ATCC 19636 type strain, CAMHB
[17] = read-out: BMD MIC, A. baumannii Greece CI, XDR, PmxR, MHB
[18] = ATCC27853, read-out: BMD MIC, P. aeruginosa ATCC 27853 control strain, CAMHB
[19] = read-out: BMD MIC, P. aeruginosa FADDI-070, MDR, PmxR, MHB/CAMHB
[20] = ATCC25922, read-out: BMD MIC, E. coli ATCC 25922 FDA control strain, CAMHB, mode of 6 replicates
[21] = ATCC700926 / MG1655, read-out: BMD MIC
[22] = ATCC700928, read-out: BMD MIC, E. coli ATCC 700928 CFT073 UPEC, CAMHB, mode of 6 replicates
[23] = Worldwide isolates 2011-2013, K. pneumoniae n = 114
[24] = Worldwide isolates 2011-2013, P. aeruginosa n = 111
[25] = Worldwide isolates 2011-2013, A. baumannii n = 108
[26] = Worldwide isolates 2011-2013, E. coli n = 112

CO/N=C(\C(=O)N[C@@H]1C(=O)N2C(C(=O)[O-])=C(C[N+]3(C)CCCC3)CS[C@H]12)c1csc(N)n1 [Cefepime, reference compound]
MIC (K. pneumoniae; [12]): 1 µg/mL (≈ 2.08 µM) | MIC (K. pneumoniae; [13]): 0.5 µg/mL (≈ 1.04 µM) | MIC (K. pneumoniae; [14]): > 64 µg/mL | MIC (K. pneumoniae; [15]): > 64 µg/mL | MIC (A. baumannii; [16]): 8 µg/mL (≈ 16.6 µM) | MIC (A. baumannii; [17]): > 64 µg/mL | MIC (P. aeruginosa; [18]): ≤ 0.5 µg/mL | MIC (P. aeruginosa; [19]): > 64 µg/mL | MIC (S. enterica Typhi): ≤ 0.5 µg/mL | MIC (E. coli [1]; [20]): ≤ 0.5 µg/mL | MIC (E. coli [1]; [21]): ≤ 0.5 µg/mL | MIC (E. coli [1]; [22]): ≤ 0.5 µg/mL | MIC (E. coli [1]; read-out: BMD MIC): 8 µg/mL (≈ 16.6 µM) | BMD MIC (E. coli [2]): >2 µg/mL

CN(C)CCCN1c2ccccc2Sc2ccc(Cl)cc21 [Chlorpromazine, reference compound]
IC50 [3]: 35 µM

CN[C@H](CC(C)C)C(=O)N[C@H]1C(=O)N[C@@H](CC(N)=O)C(=O)N[C@H]2C(=O)N[C@H]3C(=O)N[C@H](C(=O)N[C@H](C(=O)O)c4cc(O)cc(O)c4-c4cc3ccc4O)[C@H](O)c3ccc(c(Cl)c3)Oc3cc2cc(c3O[C@@H]2O[C@H](CO)[C@@H](O)[C@H](O)[C@H]2O[C@H]2C[C@](C)(N)[C@H](O)[C@H](C)O2)Oc2ccc(cc2Cl)[C@H]1O [Vancomycin, reference compound]
MIC (L. monocytogenes; Listeria monocytogenes, ATCC19112, read-out: BMD MIC): 4 µg/mL (≈ 2.76 µM) | MIC (B. subtilis; ATCC6051 / NRS744, read-out: BMD MIC): 0.25 µg/mL (≈ 0.173 µM) | MIC (B. subtilis; ATCC6633 / NRS231, read-out: BMD MIC): 0.25 µg/mL (≈ 0.173 µM) | MIC (S. enterica Typhi): > 64 µg/mL | MIC (S. aureus; ATCC25923|MSSA, read-out: BMD MIC, S. aureus ATCC 25923 MSSA, CAMHB): 2 µg/mL (≈ 1.38 µM) | MIC (S. aureus; ATCC25923|MSSA, read-out: BMD MIC, S. aureus ATCC 25923 MSSA, MHB): 1 µg/mL (≈ 0.69 µM) | MIC (S. aureus; ATCC43300|MRSA, read-out: BMD MIC, S. aureus ATCC 43300 MRSA, MHB): 1 µg/mL (≈ 0.69 µM)

CC(C)(O/N=C(\C(=O)N[C@@H]1C(=O)N2C(C(=O)[O-])=C(C[n+]3ccccc3)CS[C@H]12)c1csc(N)n1)C(=O)O [Ceftazidime, ceftazidime, reference compound]
MIC90 ([4]; Klebsiella pneumoniae, US isolates 2010–2012, K. pneumoniae Non-MDR, n = 24): 1 µg/mL (≈ 1.83 µM) | MIC90 ([4]; Klebsiella pneumoniae, US isolates 2010–2012, K. pneumoniae XDR, n = 55): > 32 µg/mL | MIC50 [4, 23]: 1 µg/mL (≈ 1.83 µM) | MIC90 [4, 23]: > 32 µg/mL | MIC90 ([5]; Pseudomonas aeruginosa, US isolates 2010–2012, P. aeruginosa Non-MDR, n = 41): 32 µg/mL (≈ 58.5 µM) | MIC90 ([5]; Pseudomonas aeruginosa, US isolates 2010–2012, P. aeruginosa XDR, n = 37): > 32 µg/mL | MIC50 [5, 24]: 4 µg/mL (≈ 7.32 µM) | MIC90 [5, 24]: > 32 µg/mL | MIC90 ([6]; Acinetobacter baumannii): > 32 µg/mL | MIC90 ([6]; US isolates 2010–2012, A. baumannii MDR, n = 19): >32 µg/mL | MIC90 ([6]; US isolates 2010–2012, A. baumannii XDR, n = 31): >32 µg/mL | MIC50 [6, 25]: > 32 µg/mL | MIC90 [6, 25]: > 32 µg/mL | MIC90 ([7]; Escherichia coli): 32 µg/mL (≈ 58.5 µM) | MIC90 ([7]; Escherichia coli, US isolates 2010–2012, E. coli MDR, n = 31): > 32 µg/mL | MIC90 ([7]; Escherichia coli, US isolates 2010–2012, E. coli Non-MDR, n = 24): 2 µg/mL (≈ 3.66 µM) | MIC50 [7, 26]: 0.25 µg/mL (≈ 0.457 µM) | MIC90 [7, 26]: 32 µg/mL (≈ 58.5 µM) | MIC (K. pneumoniae; [12]): 1 µg/mL (≈ 1.83 µM) | MIC (K. pneumoniae; [13]): > 64 µg/mL | MIC (K. pneumoniae; [14]): > 64 µg/mL | MIC (K. pneumoniae; [15]): > 64 µg/mL | MIC (A. baumannii; [16]): 16 µg/mL (≈ 29.3 µM) | MIC (A. baumannii; [17]): > 64 µg/mL | MIC (P. aeruginosa; [18]): 8 µg/mL (≈ 14.6 µM) | MIC (P. aeruginosa; [19]): > 64 µg/mL | MIC (S. enterica Typhi): ≤ 0.5 µg/mL | MIC (E. coli [1]; [20]): 1 µg/mL (≈ 1.83 µM) | MIC (E. coli [1]; [21]): ≤ 0.5 µg/mL | MIC (E. coli [1]; [22]): ≤ 0.25 µg/mL | MIC (E. coli [1]; read-out: BMD MIC): 16 µg/mL (≈ 29.3 µM) | BMD MIC (E. coli [2]): >16 µg/mL

CC(C)[C@@H]1NC(=O)CNC(=O)[C@H](CC(N)=O)NC(=O)[C@H](CCCNC(=N)N)NC(=O)[C@H](Cc2ccc(O)cc2)NC(=O)[C@H](C(C)C)NC(=O)[C@@H]2CSSC[C@H](NC(=O)[C@H](C(C)C)NC(=O)[C@H](CCCNC(=N)N)NC1=O)C(=O)N[C@@H](Cc1ccc(O)cc1)C(=O)N[C@@H](CCCNC(=N)N)C(=O)N[C@@H](CCCNC(=N)N)C(=O)N[C@H](C(=O)N[C@@H](CC(N)=O)C(=O)O)CSSC[C@H](NC(=O)[C@H](Cc1ccccc1)NC(=O)CN)C(=O)N[C@@H](Cc1c[nH]c3ccccc13)C(=O)N[C@@H](Cc1ccc(O)cc1)C(=O)N[C@@H](C(C)C)C(=O)N2 [Arenicin-3] (HELM PEPTIDE1{G.F.C.W.Y.V.C.V.Y.R.N.G.V.R.V.C.Y.R.R.C.N}$PEPTIDE1,PEPTIDE1,3:R3-20:R3|PEPTIDE1,PEPTIDE1,7:R3-16:R3$$$V2.0)
MIC, MHB (E. coli ATCC 25922): 1 µg/mL (≈ 0.383 µM) | BMD MIC (K. pneumoniae): 1 µg/mL | BMD MIC (L. monocytogenes): 8 µg/mL | BMD MIC (C. albicans): >32 µg/mL | BMD MIC (C. albicans; 24 h): >64 µg/mL | BMD MIC (B. subtilis): 8 µg/mL | BMD MIC (A. baumannii): 1 µg/mL | BMD MIC (P. aeruginosa): 1 µg/mL | BMD MIC (S. enterica Typhi; Typhi): 2 µg/mL | BMD MIC (C. neoformans): 1 µg/mL | Heamolysis HC10, Mean [8]: 204 µg/mL | CC50 HEK293, Mean [9]: 271 µg/mL (≈ 104 µM) | CC50 at 24 h (in vitro; HEK-293 cells): 271 µg/mL (≈ 104 µM) | CC50 at 24 h (in vitro; HK-2 cells): 170 µg/mL (≈ 65.1 µM) | CC50 HepG2 [10]: >300 µg/mL | CC50 HepG2, Mean [10]: >300 µg/mL | CC50 HepG2 ([10]; human, HepG2 cells, 24 h): >300 µg/mL | CC50 HK2, Mean [11]: 170 µg/mL (≈ 65.1 µM)
